Assay results as given in the NIST ThermoML archive (doi:10.1016/j.jct.2019.03.035).

Assay: molar heat capacity at constant pressure; xn = mol fraction of the nth substance listed
Conditions: 100 kPa, Liquid, DSC, x1 = 0.53

N#Cc1ccccc1 [benzonitrile] + CCCCCCCCCC
Conditions	molar heat capacity at constant pressure [J/K/mol]
281.74 K	261.8
281.89 K	260.4
282.04 K	262.8
282.19 K	264
282.34 K	264.4
282.48 K	263.4
282.63 K	264
282.78 K	263.3
282.93 K	263.9
283.08 K	266.3
283.23 K	265.2
283.38 K	266.7
283.52 K	266.3
283.67 K	268.2
283.82 K	266.5
283.97 K	267.5
284.12 K	266.6
284.26 K	265.9
284.41 K	266.6
284.56 K	268
284.71 K	266.6
284.86 K	268.5
285.01 K	265.8
285.16 K	269.9
285.3 K	270.2
285.45 K	268.9
285.6 K	269.8
285.75 K	271.8
285.9 K	271.1
286.05 K	270.5
286.19 K	273.2
286.34 K	273.4
286.49 K	278.6
286.64 K	283.9
286.79 K	282.2
286.94 K	285.9
287.09 K	285.2
287.23 K	307.6
287.38 K	254
287.53 K	250.3
287.68 K	248.6
287.83 K	246.7
287.98 K	247.4
288.12 K	245.8
288.27 K	246
288.42 K	245.6
288.57 K	244.9
288.72 K	244.8
288.87 K	244.5
289.01 K	244.3
289.16 K	243.6
289.31 K	244.2
289.46 K	243.9
289.61 K	244.1
289.76 K	243.4
289.9 K	243.5
290.05 K	243.5
290.2 K	243.2
290.35 K	243.1
290.5 K	243.2
290.65 K	243.1
290.83 K	243
290.98 K	241.8
291.13 K	243
291.28 K	243.4
291.43 K	242.8
291.57 K	242.5
291.72 K	242.7
291.87 K	242.8
292.02 K	242.4
292.17 K	242.1
292.32 K	241.7
292.46 K	242.5
292.61 K	242.1
292.76 K	241.7
292.91 K	242.6
293.06 K	242
293.21 K	242.1
293.36 K	242.4
293.5 K	241.7
293.65 K	242.3
293.8 K	242.2
293.95 K	242.1
294.1 K	241.7
294.25 K	241.9
294.39 K	241.8
294.54 K	242.1
294.69 K	242.1
294.84 K	242.3
294.99 K	241.7
295.14 K	242.2
295.29 K	242.1
295.43 K	241.7
295.58 K	242
295.73 K	242.1
295.88 K	242.8
296.03 K	242.1
296.18 K	242.8
296.32 K	242.2
296.47 K	241.8
296.62 K	241.1
